{
  "source": "patent US20240082260A1",
  "about": "“INHIBITOR OF PROTEIN KINASE D FOR USE IN PREVENTION OR TREATMENT OF HYPERLIPIDEMIA” (priority 2021, published 2024)",
  "key": {"male C57BL/6 mice on HFD": {"tested_on": "male C57BL/6 mice on HFD", "experiment": "Oral PKD inhibitor in mice with pre-established obesity (rescue, treatment after 7 weeks of HFD)", "format": "in vivo, mouse", "description": "Mice body weight development was closely monitored and reported here on a weekly basis when mice were on a specified diet. All experiments were performed in male mice. […] A glucose tolerance test (GTT) was performed after overnight fasting. Mice blood glucose was assessed before and 15, 30, 60, 90, and 120 minutes after intraperitoneal injection of glucose (2 g/kg). For the Insulin tolerance test (ITT), the same measurements were performed after 4 hours of fasting and intraperitoneal injection of 0.5 U/kg of recombinant insulin. For glucose measurements, one blood drop was drawn from the tail tip into a test strip and measured with a glucometer (Accu-Chek® Roche)."}, "Caco2 cells": {"tested_on": "Caco2 cells", "experiment": "Lipid transport (14C-fatty acid release) through Caco2 monolayer in transwell system", "format": "cell-based, human", "conditions": "24 h", "description": "(§1) Lipid transport studies were assessed in Caco2 cells seeded in trans-wells. 1.5×10^5 cells were seeded into a 12-well cell culture insert of 1 μm pore size Trans-well and maintained in for 14 consecutive days with media change every two days. For the lipids uptake and release, the apical side of the membrane was loaded with radioactive ^14C-palmitic acid (0.2 μCi), oleic acid (1 mM), and taurocholic acid (2 mM) in DMEM high glucose 10% FBS. The basal medium contained DMEM high glucose 0.1% FBS. After 24 hours of incubation, cell lysates and the apical and basolateral medium was collected and the ^14C-palmitic acid was measured in a scintillation counter for aliquots of apical and basal medium and for cell lysate. The same protocol was used in Caco2 cells that were treated with CRT0066101 (3 and 5 μM) for 24 h (added together with the mentioned radioactive fatty acid cocktail).\nIn order to test the potential of PKD inhibitors to restrict lipid transport via epithelial monolayer, we employed Caco2 cells seeded into the Transwells system. Briefly, we plated 1.5×10^5 cells seeded into a 12-well cell culture inserts of 1-μm pore size Transwell and maintained in for 14 consecutive days with media change every 2 days. For the lipid uptake and release, the apical side of the membrane was loaded with radioactive 14C-palmitic acid (0.2 μCi), oleic acid (1 mM), and taurocholic acid (2 mM) in DMEM high glucose 10% FBS. The basal medium contained DMEM high glucose 0.1% FBS. After 24 h of incubation, cell lysates and the apical and basolateral medium were collected and the 14C-palmitic acid was measured in a scintillation counter for aliquots of apical and basal medium and for cell lysate. To assess the efficiency of different PKD inhibitors, Caco2 cells were treated with either CRT0066101 (5 μM), CID2011756 (20 μM), CID755673 (20 μM), 1-NM-PP1 (20 μM), or control solvent solution (DMSO) for 24 h (added together with the mentioned radioactive FA cocktail)."}, "LDLR-/- mice": {"tested_on": "LDLR-/- mice", "experiment": "Atheroma formation in high cholesterol diet-fed LDLR-/- mice", "format": "in vivo, mouse", "conditions": "oral 10 mg/kg a day, 7th to 17th week of high cholesterol diet, vs solvent", "from_the_text": "To assess the impact of PKD2 on cholesterol levels as well as on atheroma formation, we utilized a mouse genetic model of atheroma formation and mice carrying inactivatory mutation in the sequence encoding PKD2 (Matthews et al, 2010). Mice deficient for Low-density lipoprotein receptor (LDLR), develop hyperlipidemia (elevated levels of cholesterol) and deposit a significant amount of atherosclerotic plaques in the vessels especially when fed with a high cholesterol diet (containing 1.25% of the cholesterol in the food) (Ishibashi et al, 1993). We crossed mice deficient for LDLR (LDLR−/−) and mice carrying inactivatory mutation of PKD2 (PKD^ki/ki) to generate double mutant mice (LDLR−/− PKD^ki/ki) and corresponding control animals, LDLR−/−. These animals were fed for 18 weeks with high cholesterol diet. […] The relative plaque area was also quantified.\nTo test if inhibition of PKD by CRT0066101 compound is also sufficient to reduce atherosclerotic plaque formation, we also utilized high cholesterol diet-fed LDLR−/− mice as a model. […] After the 17th week of the experiment, mice were sacrificed and lipid levels in the blood, as well as the amount of atherosclerotic plaques, were assessed as described for the genetic model above."}, "[1]": {"tested_on": "Caco2 cells deficient in PKD2", "experiment": "14C-fatty acid basolateral release in Caco2 cells expressing shPkd2 in transwell system", "format": "cell-based, human", "conditions": "24 h, FIG. 6B", "description": "Caco2 cells were cultured in Dulbecco's modified eagle's medium 4.5 g/L glucose (DMEM), 10% fetal bovine serum (FBS), non-essential amino acids (NEAA), 1 mM sodium pyruvate, and 40 μg/mL gentamycin. For the generation of shRNA cell lines, Pkd2 shRNA lentiviral sequences or scramble (non-targeting) were first cloned into the pLKO.1-puro vector then packed into viral particles in packaging cells (HEK293T) using 3rd generation packaging vectors. Caco2 cells were spinfected with viral supernatant then selected with puromycin and the deletion efficiency was further assessed by western blot.\nas §1, with “The same protocol was used in Caco2 cells that were treated with CRT0066101 (3 and 5 μM) for 24 h (added together with the mentioned radioactive fatty acid cocktail).” left out"}},
  "data": [
    {"smiles": "CC[C@@H](N)CNc1ccnc(-c2cc(-c3cnn(C)c3)ccc2O)n1", "note": "[CRT0066101]", "values": [
      {"measurement": "glucose tolerance", "setting": "male C57BL/6 mice on HFD; 8 weeks after starting treatment, FIG. 7D", "result": "improved glucose tolerance"},
      {"measurement": "insulin sensitivity", "setting": "male C57BL/6 mice on HFD; 10 weeks after starting treatment, FIG. 7E", "result": "improved"},
      {"measurement": "weight gain", "setting": "male C57BL/6 mice on HFD; treatment started after 7 weeks HFD, HFD continued, vs water, FIG. 7A", "result": "significantly decreased weight gain"},
      {"measurement": "obesity (fat depots, fat mass by NMR)", "setting": "male C57BL/6 mice on HFD; treatment started after 7 weeks HFD, FIG. 7B-C", "result": "less obesity"},
      {"measurement": "lipid transport through the Caco2 monolayer", "setting": "Caco2 cells; 5 μM, vs DMSO, FIG. 8", "result": "significant reduction in lipid transport"},
      {"measurement": "TG secretion (basolateral release of 14C-labeled fatty acids)", "setting": "Caco2 cells; Caco2 transwell, 3 and 5 μM, FIG. 6A", "result": "reduces TG secretion in a dose dependent manner"},
      {"measurement": "blood cholesterol levels", "setting": "LDLR-/- mice; FIG. 10A", "result": "reduction in cholesterol levels"},
      {"measurement": "size of atherosclerotic plaques (relative area in aorta, OilRedO)", "setting": "LDLR-/- mice; FIG. 10B-C", "result": "smaller size of atherosclerotic plaques"},
      {"measurement": "TG secretion (basolateral release of 14C-labeled fatty acids)", "setting": "[1]", "result": "did not reduce TG secretion"}
    ]}
  ]
}
